Measured values reported in patent publication US20250144230A1, “LINKERS FOR USE IN ANTIBODY DRUG CONJUGATES” (Orum Therapeutics, Inc., priority 2021, published 2025).
Each block holds one molecule with its values, some of them ahead of it.

Assays:
BRD4 = target: T1, BRD4 (Homo sapiens, UniProt O60885); experiment: In vitro BRD4 protein degradation assay (Western blot); format: cell-based; conditions: 10 nM, MV4-11 cells, overnight
T1 construct: endogenous in cells; host or cells: MV4-11
Description: The ability of the claimed conjugates to degrade BRD4 was measured using an in vitro degradation assay. MV4-11 cells were incubated with test article overnight. Protein was loaded to 4-12% NuPAGE Bis-Tris gel. Western blot with rabbit anti-BRD4 Ab (Cell Signaling #13440) was performed at 1:1,000 dilution and re-blotting with β-actin HRP (Cell Signaling #5125) was performed at 1:1,000. The degradation activity of the gemtuzumab conjugate Compound (XL) and the unconjuaged BRD4 degrader small molecule Compound 40-3 are shown in FIG. 14.

[1] = tested on: MV-4-11 human acute myeloid leukemia cells; experiment: In vivo MV-4-11 subcutaneous myeloid leukemia tumor model; parameters: species or system Athymic Nude mice; conditions: 0.4 mg/kg IP once a day for 14 days (equivalent to conjugated payload dose)
Description: Subcutaneous tumor model—MV-4-11 human acute myeloid leukemia cells (1×10^7 cells in 0.1 mL) were subcutaneously inoculated into the right flank of female Athymic Nude mice. Mice were treated with each test article when the tumor size reached 100-150 mm^3. 10 mg/kg of CD33-D antibody-Compound (XL) conjugate (in 20 mM succinate, 8% sucrose, 0.01% Tween-20 pH 5.5) was delivered by intravenous administration (IV) once a week for 2 weeks. 0.4 mg/kg of Compound (XL) (in 5% NMP, 45% PEG300, 20 mM NaPi pH 6.5) and 10 mg/kg of ARV-825 (as described in Liu, et al. Chemistry & Biology 2015, volume 22, pages 755-763) in 1.5 mg/mL, 5% Kolliphor, HS15 WFI Buffer was treated by intraperitoneal administration (IP) once a day for 14 days. Tumor size and mouse body weight were measured twice per week. Subcutaneous tumor volume (mm^3) was calculated with the following formula: (a×b^2/2) where ‘b’ is the smallest diameter and ‘a’ is the largest diameter. The study endpoint is that individual mice were euthanized following respective tumor volume ≥1,000 mm^3 or day 60, whichever came first.

MV-4-11 cells = experiment: In vitro MV-4-11 antiproliferation assay (alamarBlue); format: cell-based, human; conditions: 4 days, test article alone
Description: MV-4-11 cells were exposed to varying concentrations of conjugates or antibodies for 4 days with/without 1 μM of the blocking antibody Gemtuzumab or Trastuzumab. Viability of the cells was determined by alamarBlue. The antiproliferative activity of the gemtuzumab conjugate of Compound (XL) and the unconjuaged BRD4 degrader small molecule Compound 40-3 are showin in FIG. 13. […] The antibodies alone were not active up to […].

CD79b [2] = target: T2, CD79b (Homo sapiens, UniProt P40259); experiment: Binding of conjugate and parent antibody to cancer cells (flow cytometry), CD79b / Ramos; conditions: 1 hour at 4° C.; conjugate at DARs 2.0, 3.2 and 4.6
T2 construct: endogenous in cells; host or cells: Ramos
T2 sequence (P40259 29-229): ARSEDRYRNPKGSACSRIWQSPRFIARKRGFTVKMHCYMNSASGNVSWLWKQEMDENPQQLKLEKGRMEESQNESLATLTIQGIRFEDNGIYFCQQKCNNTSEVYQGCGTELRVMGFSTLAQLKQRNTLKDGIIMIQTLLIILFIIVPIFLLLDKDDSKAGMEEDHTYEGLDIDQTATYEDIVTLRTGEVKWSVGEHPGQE
T2 sequence (P11912 33-226 partner): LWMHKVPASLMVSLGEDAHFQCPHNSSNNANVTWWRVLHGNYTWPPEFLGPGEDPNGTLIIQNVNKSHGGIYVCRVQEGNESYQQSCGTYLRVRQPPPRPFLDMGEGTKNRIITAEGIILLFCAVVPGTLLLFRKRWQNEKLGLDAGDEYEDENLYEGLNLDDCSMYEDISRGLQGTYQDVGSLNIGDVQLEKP

CD79b [3] = target: T3, CD79b (UniProt P40259 29-229, limits assumed); experiment: flow cytometry binding to Ramos cells (procedure of Example 10)
T3 construct: whole, on cells; Endogenous antigen on the cell line
T3 sequence (looked up): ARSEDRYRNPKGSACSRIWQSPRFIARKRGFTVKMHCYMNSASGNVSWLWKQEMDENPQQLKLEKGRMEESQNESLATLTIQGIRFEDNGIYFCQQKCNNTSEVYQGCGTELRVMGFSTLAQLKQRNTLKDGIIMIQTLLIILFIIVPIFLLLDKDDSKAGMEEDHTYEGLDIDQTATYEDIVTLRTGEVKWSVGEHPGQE

- reduction in BRD4 protein band intensity (BRD4): > 90%
Molecule: Cn1cc(-c2cc(NC(=O)CCCCC(=O)NCCCCNc3cccc4c3C(=O)N(C3CCC(=O)NC3=O)C4=O)ccc2Oc2ccc(F)cc2F)c2cc[nH]c2c1=O (centres unmarked) [Compound 40-3, N′-[4-(2,4-difluorophenoxy)-3-{6-methyl-7-oxo-1H-pyrrolo[2,3-c]pyridin-4-yl}phenyl]-N-(4-{[2-(2,6-dioxopiperidin-3-yl)-1,3-dioxoisoindol-4-yl]amino}butyl)hexanediamide, reference compound]
- effect on MV-4-11 tumor growth [1]: inactive
- antiproliferative activity against MV-4-11 cells (in words) (MV-4-11 cells): highly active

Molecule: Synagis N297A: non-binding control antibody
- CD79b binding on Ramos cells by flow cytometry (in words) (CD79b [2]): relatively negligible signal intensity

- EC50 (CD79b [3]): 0.74 nM
B1: CD79b-A antibody (antibody, V domains shown)
VH: EVQLVESGGGLVQPGGSLRLSCAASGYTFSSYWIEWVRQAPGKGLEWIGEILPGGGDTNYNEIFKGRATFSADTSKNTAYLQMNSLRAEDTAVYYCTRRVPIRLDYWGQGTLVTVSS
VL: DIQLTQSPSSLSASVGDRVTITCKASQSVDYEGDSFLNWYQQKPGKAPKLLIYAASNLESGVPSRFSGSGSGTDFTLTISSLQPEDFATYYCQQSNEDPLTFGQGTKVEIK
notes: also called Polatuzumab
